Assay results as given in publication PMC7461568, “Novel Cyclic Lipopeptide Antibiotics: Effects of Acyl Chain Length and Position” (International Journal of Molecular Sciences, 2020).
In brackets after ≈: the same amount, converted by molar mass. Where two headings read alike, the source gives them in different places. Where a SMILES comes first, the peptide text is derived from it. Bridges are numbered along the chain shown (N, C = ends). [ ]: non-standard residue; d: D form. The star is where a group is joined. Bip = N[C@@H](Cc1ccc(-c2ccccc2)cc1)C(=O)O; 2Nal = N[C@@H](Cc1ccc2ccccc2c1)C(=O)O; X1 = CC[C@H](C)CCCCC(=O)*; Dab = NCC[C@H](N)C(=O)O; Hexanoyl = CCCCCC(=O)*; AEEA = NCCOCCOCC(=O)O; Butyryl = CCCC(=O)*

What was measured:
[1] = tested on: E. coli ATCC 25922; assay type: cell-based, Escherichia coli; conditions: MHB-II, inoculum 5 × 10^5 CFU/mL, 37 °C, 18–24 h, visual read-out, triplicate
Method: (§1) In the original report on S3(B), MIC experiments were carried out by using non-cation-adjusted MHB-I media. To this, bovine serum albumin (BSA) and acetic acid were added. The rationale for choosing a medium without cations is that cation-adjusted media (MHB-II) in some cases causes substantial inhibition of the activity of cationic peptides. Furthermore, some peptides are at risk of precipitation when diluted into MHB medium, which can be avoided via the addition of BSA and acetic acid. However, the use of MHB-II is favorable to imitate the in vivo conditions as much as possible. Both media were tested with and without the addition of BSA and acetic acid by trial and error. The use of pure MHB-II was compatible with S3(B) and its fatty acid analogues, and therefore was chosen for the MIC determinations. Noticeably, MHB-I with BSA and acetic acid led to precipitation of lipopeptides in the present work.
(§2) Cation-adjusted Mueller-Hinton broth (MHB-II) media (BD BBLTM Beef extract powder, BD BactoTMCasamino acids, and DIFCO soluble starch was from Becton, Dickinson and Company©, Franklin Lakes, NJ, USA). MHB media supplemented with 0.2% BSA was from Sigma Aldrich (St. Louis, MO, USA) and 0.01% acetic acid from VWR®. The 96 well plate cell-culture cluster, round-bottom, polypropylene plates, and V-shaped 96 well polypropylene plates were purchased from Corning® Inc., Costar®, Corning, NY, USA. Microseal® film was obtained from Bio-Rad Laboratories, Inc., Hercules, CA, USA. A VersaMaxTM Tunable Microplate Reader (Molecular Devices LLC, Sunnyvale, CA, USA) was used and the data were evaluated on a Softmax® Pro (Molecular Devices LLC).
(§3) The MIC experiments were performed according to a protocol adapted from Wiegand et al., with minor modifications. The MICs were determined in triplicate. The peptides were dissolved in Milli-Q water to produce 10 mg/mL stock solutions in small glass containers. The bacterial isolates to be tested were streaked onto agar plates to obtain single colonies, and the plates were incubated at 37 °C for 18–24 h. The strains tested were S. aureus ATCC 29213, P. aeruginosa ATCC 27853, E. coli ATCC 25922, A. baumannii ATCC 19606, and K. pneumonia ATCC 13883. Test compounds were prepared in 2-fold dilutions in 50 μL volumes in polypropylene microtiter plates. Bacterial cultures grown to OD600 = 0.1–0.4 were diluted to a desired OD600 of 0.001–0.002 corresponding to 1 × 10^6 CFU/mL. Next, 50 μL bacterial suspension was added to the microtiter plates, giving a final bacterial inoculum of 5 × 10^5 CFU/mL per well. The plates were incubated at 37 °C for 18–24 h. […] The MIC values were visually evaluated, and the MIC was set to the lowest concentration […] based on triplicate measurements. […]

[2] = tested on: K. pneumonia ATCC 13883; assay type: cell-based, Klebsiella pneumoniae; conditions: K. pneumoniae ATCC 13883; MHB-II, inoculum 5 × 10^5 CFU/mL, 37 °C, 18–24 h, visual read-out, triplicate
Method: as §1, §2, §3

[3] = tested on: human erythrocytes; assay: Hemolysis of red blood cells; conditions: 1 h; for %H, percent hemolytic activity against red blood cells at 150 μM: human erythrocytes, 0.5% v/v RBC suspension in PBS, peptide 150 μM, 37 °C, absorbance 414 nm, melittin positive control, triplicate
Method: The hemolysis experiments were performed according to the protocol described in Reference. The peptides were tested at concentrations from 2.35–150 μM, using melittin as positive control and PBS as negative control. One premade tablet of PBS was dissolved in 200 mL Milli-Q water. The solution was kept in the refrigerator for a maximum of two days. The day before the test, the positive control wells of the 96 well polypropylene plates were precoated with 150 μL of melittin 5 μM solution in PBS. The solution was prepared in Protein LoBind Eppendorf tubes. The day of the test, the solution was discarded and the wells were washed three times with 150 μL PBS. A melittin 2.50 μM solution in PBS was prepared in Protein LoBind Eppendorf tubes—500 μL for every plate to be used. The mass of the peptide needed to reach a final concentration of 300 μM (to start testing down from 150 μM) was calculated, since a volume of 500 μL was desirable. […] The peptides were dissolved in PBS and tested in triplicate.
In a 96 well polypropylene plate, 150 μL of peptide solution was transferred to three wells in Row A. Therefore, each plate could accommodate up to four peptides. A 2-fold serial dilution of the peptides was obtained by transferring 75 μL of the solutions from Row A to the corresponding wells in Row B, mixing a couple of times. From Row B, 75 μL was transferred to Row C and so on until Row G, where 75 μL was discarded after mixing. Volumes of 75 μL melittin (2.50 μM) was transferred to the positive control wells in H1–H6. Preparation of the RBC suspension: 1 mL of whole blood was transferred to a cryotube with 3 mL of PBS, and then it was gently mixed and centrifuged for 8 min at 3000 rpm. The supernatant was discarded, and the process was repeated twice; with 4 mL at 3000 rpm and 4 mL at 4000 rpm, respectively. From the final RBC pellet, 40 μL was transferred to 8 mL of PBS (multiplied by the number of test plates needed). This corresponded to a 0.5% v/v RBC suspension. The suspension was gently mixed and transferred into a CAPPOrigami reservoir. Using a multichannel pipette, 75 μL of the suspension was transferred into each well and mixed in the direction of increasing concentration. The control wells were mixed separately. The plates were covered with BioradMicroseal foil and incubated at 37 °C for 1 h. The plates (maximum two) were centrifuged for 10 min at 4000 rpm, followed by transferring of supernatant (60 μL) from each well into the corresponding wells in a clear ELISA plate. The absorbance (A) of each well was measured at λ = 414 nm using the software program Softmax(R) Pro.

[4] = Hydrophobicity by analytical RP-HPLC (%B at peak elution); assay type: physicochemical; conditions: chromatographic, percentage of mobile phase B at the peak elution time
Source text: To investigate the effect of attaching fatty acids to a macrocycle, fatty acid tails of different lengths were used. When the carbon chain was elongated, the hydrophobicity of the peptide was increased gradually. Herein, the hydrophobicity is expressed as the percentage of mobile phase B at the peak elution time on an RP-HPLC system.

[5] = tested on: A. baumannii ATCC 19606; assay type: cell-based, Acinetobacter baumannii; conditions: MHB-II, inoculum 5 × 10^5 CFU/mL, 37 °C, 18–24 h, visual read-out, triplicate
Method: as §1, with “The use of pure MHB-II was compatible with S3(B) and its fatty acid analogues, and therefore was chosen for the MIC determinations. Noticeably, MHB-I with BSA and acetic acid led to precipitation of lipopeptides in the present work.” left out
(§4) Cation-adjusted Mueller-Hinton broth (MHB-II) media (BD BBLTM Beef extract powder, BD BactoTMCasamino acids, and DIFCO soluble starch was from Becton, Dickinson and Company©, Franklin Lakes, NJ, USA). […] A VersaMaxTM Tunable Microplate Reader (Molecular Devices LLC, Sunnyvale, CA, USA) was used and the data were evaluated on a Softmax® Pro (Molecular Devices LLC).
(§5) The MIC experiments were performed according to a protocol adapted from Wiegand et al., with minor modifications. The MICs were determined in triplicate. […] The MIC values were visually evaluated, and the MIC was set to the lowest concentration […] based on triplicate measurements. […]

[6] = tested on: P. aeruginosa ATCC 27853; assay type: cell-based, Pseudomonas aeruginosa; conditions: MHB-II, inoculum 5 × 10^5 CFU/mL, 37 °C, 18–24 h, visual read-out, triplicate
Method: as §1, with “The use of pure MHB-II was compatible with S3(B) and its fatty acid analogues, and therefore was chosen for the MIC determinations. Noticeably, MHB-I with BSA and acetic acid led to precipitation of lipopeptides in the present work.” left out
as §4, §5

[7] = tested on: S. aureus ATCC 29213; assay: microbe, parasite or virus in culture; assay type: cell-based, Staphylococcus aureus; conditions: Staphylococcus aureus, ATCC29213, read-out: Minimum inhibitory concentration, SA
Method: as §1, with “The use of pure MHB-II was compatible with S3(B) and its fatty acid analogues, and therefore was chosen for the MIC determinations. Noticeably, MHB-I with BSA and acetic acid led to precipitation of lipopeptides in the present work.” left out
as §4, §5

[8] = tested on: P. aeruginosa ATCC 27853; conditions: for log reduction of cell count within first hour of treatment: 1 h, MHB-II, 37 °C, shaking, n = 3
Method: The MIC constitutes a limited measure for antimicrobial activity. It indicates whether or not AMPs in different concentrations are able to prevent visible growth of bacteria.
Time-kill experiments were performed on balanced exponentially growing cultures of P. aeruginosa ATCC 27853. We used balanced cultures as described in Oddo et al.. Briefly, overnight cultures were prepared in MHB-II broth at 37 °C with shaking. Overnight cultures were back-diluted and grown exponentially for no less than 8–10 generations before experimentation. When experiments were done, exponentially growing cultures were back-diluted to an OD600 = 0.0005 approximately 5 × 10^5 CFU, into fresh MHB-II heated to 37 °C. Samples (250 μL) were taken at time points 0, 1, 3, 5, and 24 h. Samples were spun down at 8000× g for 5 min and washed in 1 mL of NaCl 0.9% before being spun down again and re-suspended in 250 μL NaCl 0.9%. From this, 10-fold dilution series were prepared and 10 μL samples were spot-plated in triplicate onto LB-agar. From the undiluted sample, 100 μL samples were also plated, i.e., giving a detection limit of 10 CFU/mL.

Compound | Minimum inhibitory concentration, EC [1] [µg/mL] | Minimum inhibitory concentration, KP [2] [µg/mL] | %H, percent hemolytic activity against red blood cells at 150 μM [3] [%] | %B at peak of elution in analytical HPLC (hydrophobicity) [4] [%] | further results
CCCC(=O)NCC[C@@H]1NC(=O)[C@H](CCN)NC(=O)[C@H](CCCNC(=N)N)NC(=O)[C@H](Cc2ccc3ccccc3c2)NC(=O)[C@H](CCN)NC(=O)[C@H](CC(N)=O)NC(=O)[C@H](CCN)NC(=O)[C@H](Cc2ccc3ccccc3c2)NC(=O)COCCOCCNC1=O [(C4)^5] (cyclo([Dab][2Nal]R[Dab][Dab](Butyryl)[AEEA][2Nal][Dab]N)) | 64 (≈ 50 µM) | >64 | 5 | 62 | %H, percent hemolytic activity against red blood cells at 150 μM ([3]; listed as (C4)^7): 4%; %B at peak of elution in analytical HPLC (hydrophobicity) ([4]; listed as (C4)^7): 64%
CCCCCC(=O)NCC[C@@H]1NC(=O)[C@H](CCN)NC(=O)[C@H](CCCNC(=N)N)NC(=O)[C@H](Cc2ccc3ccccc3c2)NC(=O)[C@H](CCN)NC(=O)[C@H](CC(N)=O)NC(=O)[C@H](CCN)NC(=O)[C@H](Cc2ccc3ccccc3c2)NC(=O)COCCOCCNC1=O [(C6)^5] (cyclo([Dab][2Nal]R[Dab][Dab](Hexanoyl)[AEEA][2Nal][Dab]N)) | 32 (≈ 24.5 µM) | >64 | 13 | 65 | Minimum inhibitory concentration, AB [5]: 64 µg/mL (≈ 48.9 µM); Minimum inhibitory concentration, PA [6]: 16 µg/mL (≈ 12.2 µM); %H, percent hemolytic activity against red blood cells at 150 μM ([3]; listed as (C6)^7): 8%; %B at peak of elution in analytical HPLC (hydrophobicity) ([4]; listed as (C6)^7): 69%
CN[C@H](CC(C)C)C(=O)N[C@H]1C(=O)N[C@@H](CC(N)=O)C(=O)N[C@H]2C(=O)N[C@H]3C(=O)N[C@H](C(=O)N[C@H](C(=O)O)c4cc(O)cc(O)c4-c4cc3ccc4O)[C@H](O)c3ccc(c(Cl)c3)Oc3cc2cc(c3O[C@@H]2O[C@H](CO)[C@@H](O)[C@H](O)[C@H]2O[C@H]2C[C@](C)(N)[C@H](O)[C@H](C)O2)Oc2ccc(cc2Cl)[C@H]1O [Vancomycin, reference compound] | – | – | – | – | MIC [7]: 0.5 µg/mL (≈ 0.345 µM)
CC[C@H](C)CCCCC(=O)N[C@@H](CCN)C(=O)N[C@H](C(=O)N[C@@H](CCN)C(=O)N[C@H]1CCNC(=O)[C@H]([C@@H](C)O)NC(=O)[C@H](CCN)NC(=O)[C@H](CCN)NC(=O)[C@H](CC(C)C)NC(=O)[C@@H](CC(C)C)NC(=O)[C@H](CCN)NC1=O)[C@@H](C)O [Colistin, reference compound] (X1-[Dab]T[Dab][Dab][Dab][dL]L[Dab][Dab]T; lactam 4-C (inferred); N-terminus assumed) | 0.25 (≈ 0.214 µM) | 0.5 (≈ 0.428 µM) | – | – | log reduction of cell count within first hour of treatment ([8]; 5 × MIC ((C8)^5 40 μg/mL; colistin 2.5 μg/mL)): 4.5 log; cell count / growth after 24 h ([8]; 5 × MIC ((C8)^5 40 μg/mL; colistin 2.5 μg/mL), 24 h, detection limit 10 CFU/mL): No growth
N=C(N)NCCC[C@@H]1NC(=O)[C@H](Cc2ccc3ccccc3c2)NC(=O)[C@H](CCN)NC(=O)[C@H](CC(N)=O)NC(=O)[C@H](CCN)NC(=O)[C@H](Cc2ccc3ccccc3c2)NC(=O)COCCOCCNC(=O)[C@H](Cc2ccc(-c3ccccc3)cc2)NC(=O)[C@H](CCN)NC1=O [S3(B)] (cyclo([Dab][2Nal]R[Dab][Bip][AEEA][2Nal][Dab]N)) | – | – | 77 | 71 | HD50 (hemolysis) ([3]; red cells of human): 69 µM; log reduction of cell count within first hour of treatment ([8]; 1 × MIC (8 μg/mL)): 2.5 log
